In patent US20210059959A1, “USE OF CANNABINOIDS IN THE TREATMENT OF MENTAL DISORDERS” (GW Pharma Limited, priority 2015, published 2021):

Assays:
[1] = system: participants with schizophrenia or related psychotic disorder; test: Positive and Negative Syndrome Scale (PANSS), double-blind placebo-controlled study of CBD as adjunctive therapy; type: in vivo, human
Protocol: Example 1 below describes the use of a highly purified cannabis extract comprising cannabidiol (CBD) in a human clinical trial. Example 1 describes data produced in a double-blind, randomised, placebo-controlled, parallel group study of highly purified CBD as adjunctive therapy in first line treatment of schizophrenia or related psychotic disorder.
An eight-week, multi-centre, double-blind, randomised, placebo-controlled, parallel group study was conducted with the aim to determine the efficacy, safety and tolerability of highly purified CBD as adjunctive therapy in first line treatment of schizophrenia or related psychotic disorder.
This study evaluated the efficacy of highly purified CBD compared with placebo on the participant's PANSS Total score, ‘P’, ‘N’, ‘G’, SANS and BACS scores.
Changes from baseline in PANSS scores (Total, ‘P’, ‘N’ and ‘G’), SANS and BACS were recorded at the start of the study (baseline) and at the end of treatment (after 6 weeks treatment with CBD or placebo).
For inclusion in the study participants were required to be male or female aged 18 to 65 years, diagnosed with schizophrenia or a related psychotic disorder (such as schizoaffective or schizophreniform disorder) as defined by the Diagnostic and Statistical Manual of Mental Disorders Version 4. Participants must have been treated for a minimum of four-weeks and be on a stable dose of their current antipsychotic medication. […] A PANSS score in excess of 60 infers that the patient has symptoms related to schizophrenia or related disorders.
The participants were randomised to one of two treatment groups which each consisted of 39 participants. Treatment was administered as either 5 ml CBD (100 mg/ml) oral solution to be taken twice daily or 5 ml matched placebo oral solution to be taken twice daily.
Positive and Negative Syndrome Scale (PANSS)
The PANSS is a medical scale completed by a trained rater and is used for measuring symptom severity of participants with schizophrenia or related psychotic disorder. The name refers to the two types of symptoms in schizophrenia, as defined by the American Psychiatric Association: positive symptoms, which refer to an excess or distortion of normal functions (e.g. hallucinations and delusions), and negative symptoms, which represent a diminution or loss of normal functions.
It is a 30 item rating instrument that assesses the positive and negative symptoms of schizophrenia as well as symptoms of general psychopathology. A PANSS Total score is derived from the sum of the 30 items and the PANSS items are also grouped into three subscales: Positive (‘P’), Negative (‘N’), and General (‘G’). Individual items are rated on a seven point scale, where 1=absent and 7=extreme. This scale was measured at each assessment visit (Visit 1-4).
The minimum score PANSS scoring system is 30 and patients with a score of higher than 60 are considered to still be suffering psychotic symptoms.
PANSS ‘P’ scale measures the severity of: • i) Delusions • ii) Conceptual disorganisation • iii) Hallucinations • iv) […] • v) Grandiosity • vi) Suspiciousness/persecution • vii) Hostility
PANSS ‘N’ scale measures the severity of: • i) Blunted affect • ii) Emotional withdrawal • iii) Poor rapport • iv) Passive/apathetic social withdrawal • v) Difficulty in abstract thinking • vi) Lack of spontaneity and flow of conversation • vii) Stereotyped thinking
PANSS ‘G’ psychopathology scale measures the severity of: • i) Somatic concern • ii) Anxiety • iii) Guilt feelings • iv) Tension • v) Mannerisms and posturing • vi) Depression • vii) Motor retardation • viii) Uncooperativeness • ix) Unusual thought content • x) Disorientation • xi) Poor attention • xii) Lack of judgment and insight • xiii) Disturbance of volition • xiv) Poor impulse control • xv) Preoccupation • xvi) Active social avoidance

rats treated with MK-801 = details: cited from earlier work
[2] = system: patients with bipolar affective disorder; details: two female patients, 30 days; one with olanzapine as adjunct, one CBD monotherapy; cited from earlier work
[3] = CBD adjunct, 6 weeks, all patients
[4] = CBD adjunct, 6 weeks, patients on amisulpride
[5] = CBD adjunct, 6 weeks, patients on aripiprazole
[6] = CBD adjunct, 6 weeks, patients on olanzapine
[7] = CBD adjunct, 6 weeks, patients on other antipsychotics
[8] = CBD adjunct, 6 weeks, patients on quetiapine
[9] = CBD adjunct, 6 weeks, patients on risperidone

C=C(C)[C@@H]1CCC(C)=C[C@H]1c1c(O)cc(CCCCC)cc1O [CBD, Cannabidiol]
Change in baseline scores, PANSS total score [1, 3]: −11.4 | Change in baseline scores, PANSS ‘G’ score [1, 3]: −5.3 | Change in baseline scores, PANSS ‘N’ score [1, 3]: −3.1 | Change in baseline scores, PANSS ‘P’ score [1, 3]: −3.1 | Change in baseline scores, PANSS total [1, 4]: −11.3 | Change in baseline scores, PANSS ‘P’ score [1, 4]: −4.0 | Change in baseline scores, PANSS total [1, 5]: −12.3 | Change in baseline scores, PANSS ‘P’ score [1, 5]: −3.8 | Change in baseline scores, PANSS total [1, 6]: −17.5 | Change in baseline scores, PANSS ‘P’ score [1, 6]: −3.9 | Change in baseline scores, PANSS total [1, 7]: −10.3 | Change in baseline scores, PANSS ‘P’ score [1, 7]: −1.4 | Change in baseline scores, PANSS total [1, 8]: −7.5 | Change in baseline scores, PANSS ‘P’ score [1, 8]: −1.7 | Change in baseline scores, PANSS total [1, 9]: −7.8 | Change in baseline scores, PANSS ‘P’ score [1, 9]: −2.6 | Responder status for change in baseline scores, PANSS ‘P’ score ([1]; CBD adjunct, patients with >= 20% change from baseline, P = 0.0679 vs placebo): 42.9% | Responder status for change in baseline scores, PANSS total score ([1]; CBD adjunct, patients with >= 20% change from baseline, P = 0.0896 vs placebo): 28.6% | Responder status for change in baseline scores, PANSS ‘G’ score ([1]; CBD adjunct, patients with >= 20% change from baseline, P = 0.2598 vs placebo): 28.6% | Responder status for change in baseline scores, PANSS ‘N’ score ([1]; CBD adjunct, patients with >= 20% change from baseline, P = 0.7951 vs placebo): 26.2% | Change in baseline scores, PANSS ‘P’ score: difference ([1]; CBD vs placebo, all patients, P = 0.0188): (−1.4) | Change in baseline scores, PANSS total score: difference ([1]; CBD vs placebo, all patients, P = 0.1332): (−2.8) | Change in baseline scores, PANSS ‘G’ score: difference ([1]; CBD vs placebo, all patients, P = 0.1963): (−1.3) | Change in baseline scores, PANSS ‘N’ score: difference ([1]; CBD vs placebo, all patients, P = 0.8841): (−0.1) | Change in baseline scores, PANSS total: difference ([1]; CBD vs placebo, patients on amisulpride, P = 0.5543): (7.9) | Change in baseline scores, PANSS ‘P’ score: difference ([1]; CBD vs placebo, patients on amisulpride, P = 0.8241): (−0.5) | Change in baseline scores, PANSS ‘P’ score: difference ([1]; CBD vs placebo, patients on aripiprazole, P = 0.0345): (−3.1) | Change in baseline scores, PANSS total: difference ([1]; CBD vs placebo, patients on aripiprazole, P = 0.1220): (−6.2) | Change in baseline scores, PANSS total: difference ([1]; CBD vs placebo, patients on olanzapine, P = 0.0067): (−10.7) | Change in baseline scores, PANSS ‘P’ score: difference ([1]; CBD vs placebo, patients on olanzapine, P = 0.1434): (−1.5) | Change in baseline scores, PANSS total: difference ([1]; CBD vs placebo, patients on other antipsychotics, P = 0.2746): (−10.6) | Change in baseline scores, PANSS ‘P’ score: difference ([1]; CBD vs placebo, patients on other antipsychotics, P = 0.9550): (−0.2) | Change in baseline scores, PANSS total: difference ([1]; CBD vs placebo, patients on quetiapine, P = 0.6640): (5.1) | Change in baseline scores, PANSS ‘P’ score: difference ([1]; CBD vs placebo, patients on quetiapine, P = 0.7905): (0.6) | Change in baseline scores, PANSS ‘P’ score: difference ([1]; CBD vs placebo, patients on risperidone, P = 0.4625): (−0.8) | Change in baseline scores, PANSS total: difference ([1]; CBD vs placebo, patients on risperidone, P = 0.6470): (1.8) | Effect on social deficits (rats treated with MK-801): reverse social deficits | Efficacy in bipolar affective disorder [2]: ineffective
